These results are taken from US7314709B2, “Compositions and methods for detecting and quantifying COX-2 activity by lipoamino acid metabolism” (Vanderbilt University, priority 2002, dated 2008).

Residue numbers refer to the chain shown, from its start.

Assay type in all cases: biochemical, murine
Assay [1] concerns the target T1, mCOX-2 R120Q (Mus musculus, UniProt Q05769, R106Q).
T1 construct: made in house; host or cells: Sf-9 insect cells
T1 sequence (Q05769 18-604 R106Q): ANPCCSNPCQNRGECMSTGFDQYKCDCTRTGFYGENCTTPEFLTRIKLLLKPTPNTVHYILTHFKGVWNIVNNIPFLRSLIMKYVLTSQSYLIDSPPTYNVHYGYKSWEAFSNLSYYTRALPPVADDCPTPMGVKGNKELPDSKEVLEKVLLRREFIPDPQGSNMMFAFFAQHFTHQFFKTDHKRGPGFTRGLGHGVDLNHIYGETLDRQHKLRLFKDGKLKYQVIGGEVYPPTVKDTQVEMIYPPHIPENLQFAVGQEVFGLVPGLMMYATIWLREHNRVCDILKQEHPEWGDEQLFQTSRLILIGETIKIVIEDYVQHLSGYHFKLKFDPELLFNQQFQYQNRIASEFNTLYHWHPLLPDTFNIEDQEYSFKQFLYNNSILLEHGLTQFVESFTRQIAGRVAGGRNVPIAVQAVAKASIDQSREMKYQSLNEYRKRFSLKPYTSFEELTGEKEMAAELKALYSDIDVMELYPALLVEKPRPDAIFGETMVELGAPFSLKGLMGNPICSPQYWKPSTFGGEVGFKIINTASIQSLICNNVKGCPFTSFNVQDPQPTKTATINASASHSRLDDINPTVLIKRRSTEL
The assay is described as follows: Initial O2 uptake rate with constriction site mutant R120Q. The conditions noted are these: 200 nM enzyme; AA 100 μM, NAGly 200 μM. As for the experimental part:
(§1) Enzymology: COX-1 was purified from ram seminal vesicles as previously described. Site-directed mutagenesis of COX-2 was performed as described previously. Recombinant COX-2 enzymes were expressed in Sf-9 insect cells and purified by ion-exchange chromatography and gel filtration as previously described. Apo-enzymes were reconstituted with hematin prior to activity assays.
(§2) COX activity was quantified as previously described. Initial reaction velocity data were obtained from the linear portion of the oxygen uptake curves. Oxygraph data were analyzed by nonlinear regression with Enzyme Kinetics 1.5 software (Trinity Software, Campton, N.H.).
(§3) At the bottom of the substrate (and inhibitor) binding site, there is a hydrogen bonding network comprised of residues Arg-120, Tyr-355, and Glu524, that form a constriction which is present in both COX isoforms. These residues contribute to the binding of the carboxylate in both AA and NSAIDs, and the glycerol moiety of 2-AG [12,23-27].

The target of assay [2] is T2, mCOX-2 E524L (Mus musculus, UniProt Q05769, E510L).
T2 construct: made in house; host or cells: Sf-9 insect cells
T2 sequence (Q05769 18-604 E510L): T1 sequence (Q05769 18-604 R106Q) with Q89R, E493L
The assay is described as follows: Initial O2 uptake rate with constriction site mutant E524L. The conditions noted are these: 200 nM enzyme; AA 100 μM, NAGly 200 μM. As for the experimental part: as §1, §2, §3

The target in assay [3] is T3, mCOX-2 Y355F (Mus musculus, UniProt Q05769, Y341F).
T3 construct: made in house; host or cells: Sf-9 insect cells
T3 sequence (Q05769 18-604 Y341F): T1 sequence (Q05769 18-604 R106Q) with Q89R, Y324F
The assay is described as follows: Initial O2 uptake rate with constriction site mutant Y355F. The conditions noted are these: 200 nM enzyme; AA 100 μM. As for the experimental part: as §1, §2, §3

Assay [4] deals with T4, mCOX-2 V4341/R513H/V5231 (VRV) (Mus musculus, UniProt Q05769, R499H/V420I/V509I).
T4 construct: made in house; host or cells: Sf-9 insect cells
T4 sequence (Q05769 18-604 V420I/R499H/V509I): T1 sequence (Q05769 18-604 R106Q) with Q89R, V403I, R482H, V492I
The assay is described as follows: Initial O2 uptake rate with side pocket triple mutant (VRV). The following applies: 200 nM enzyme; AA 100 μM, NAGly 200 μM. As for the experimental part:
as §1, §2
Previous studies have identified residues in the side pocket of COX-2, especially Arg-513, as critical determinants of 2-AG oxygenation by COX-2 [13]. […] (FIG. 5).

Turning to `CCCCC/C=C\C/C=C\C/C=C\C/C=C\CCCC(=O)O` [AA, arachidonic acid], the “reduction in initial rate of oxygenation compared with wild-type” value in assay [1], in assay [2] and in assay [3] was < 3 fold throughout. Moreover, the “effect of mutation on oxygenation” value in assay [4] is recorded as “did not greatly affect”.
